Measured values: patent US20110190199A1, “Combination Therapy for Tuberculosis” (priority 2008, published 2011)
In brackets after ≈: the same amount, converted by molar mass. Several values for one entry are separate records, joined by “and”; a condition that tells them apart may be missing. Identical values can stand only once. Like-named read-outs stand apart in the source and are kept apart here.

Legend:
[1] = test system: Mycobacterium tuberculosis H37Rv; assay: MIC by agar dilution on Middlebrook 7H11 agar; type: cell-based; settings: 672 h, 7H11 agar + 10% OADC, 28 days at 37°C, lowest concentration to inhibit at least 99% of bacterial growth
[2] = test system: Mycobacterium tuberculosis H37Rv; type: in vivo, mice
[3] = Single-dose and steady-state serum pharmacokinetics in the murine model; type: in vivo, mice
Procedure: To determine the single-dose and steady-state pharmacokinetic profiles of the compound of formula (I) and LZD in the murine model, a sub-study was nested in the above dose-ranging study using mice treated with the compound of formula (I) at 100 mg/kg once-daily or LZD at 130 mg/kg once- or twice-daily. Three mice per group were sacrificed at 0.5, 1, 2, 4, 8 and 24 hours after the first dose of treatment (D1) and at the aforementioned time points with the addition of a 9 hour time point (i.e., 1 hour after the second daily dose) on Day 24 (D24) of treatment. Mice were anesthetized with chloroform and exsanguinated by cardiac puncture. Whole blood was collected on ice and then centrifuged to obtain serum. Acetonitrile was added to the samples before storage in gasketed screwcap tubes at −20° C. D24 samples were collected and processed in the same manner and stored at −20° C. before being sent together with D1 samples to Pfizer (Groton, Conn.) for determination of drug concentrations. The supernatant was injected (10 μL injection volume) onto the LC (Shimadzu SCL-10A, Kyoto, Japan)-MS/MS (Sciex API 3000, Applied Biosystems Group, Foster City, Calif.) using a Hypersil C18 column (5 μm, 50×2.1 mm, Thermo Electron Corp, Waltham, Mass.) and a step gradient consisting of a mobile phase of A: water with 0.05% 5 mM ammonium formate and B: acetonitrile/water/5 mM ammonium formate (80:20:0.05%). The ionization was electrospray positive ion mode. Bioanalytical data were captured using Analyst (Version 1.4.1, Applied Biosystems Group, Foster City, Calif.). Pharmacokinetic calculations were based on mean serum concentrations and performed using the non-compartmental approach (linear trapezoidal rule for AUC calculation with the aid of Watson 7.2 Bioanalytical LIMS [Thermo Electron Corp, Waltham, Mass.)). […] Concentrations of 0 were used for kinetic calculations for all results below the lower limit of quantitation (5 ng/mL).

[4] = 600-625 mg by mouth twice daily; cited from earlier work
[5] = test system: Mycobacterium tuberculosis; settings: cited from earlier work
[6] = test system: Mycobacterium tuberculosis H37Rv; assay: Example 6: in vivo activity of the combination (lung CFU after 4 and 8 weeks); parameters: species or system mice
[7] = test system: Mycobacterium tuberculosis H37Rv; assay: Example 8B: eight week dose ranging study (second phase after 4 weeks RHZU25); type: in vivo, mice; parameters: Lung CFU / CFU-U only: unit not given here; settings: for effect of U monotherapy against persisting tubercle bacilli / log reduction with U monotherapy against persisting tubercle bacilli: 4 weeks after initial 4 weeks of RHZU25; for CFU-U only: lung
Procedure: Eighty of the mice from Group 4 (in Example 8A) that had been receiving 25 mg/kg of the compound of formula I (U) along with rifampin(R), isoniazid(H), and pyrazinamide(Z) were evaluated in the second phase of the study. They were assigned to one of the groups described below in Table 6 and the study was continued for an additional 4 weeks (i.e. 8 week results).
As described above, 5 animals served as the control and no further drugs were given. Five were given the combination of rifampin(R) and isoniazid (H), five given isoniazid (H) or rifampin(R) alone. […] Six of these groups were also dosed with rifampin (R). The rifampin and isoniazid was dosed in the same manner and in the same amount as in Example 8A.
At the conclusion of the eight (8) week experiment, all of the animals were sacrificed and CFU lung counts were obtained.

[8] = test system: Mycobacterium tuberculosis H37Rv; assay: Example 8C: additional dose ranging study (4 and 8 weeks); type: in vivo, mice; settings: lung
Procedure: The protocol described above in Example 8A and 8B was carried out on an alternative occasion. The only substantive changes were the number of animals per group and the initial incubation period.
Testing continued for an additional 4 weeks with 60 of the mice from Test Group 2 immediately above. The mice either received U alone, at varying doses, or the combination of U and R. The following results were obtained.

[9] = test system: M. tuberculosis H37Rv; assay: Example 9: compound of formula I added to first and second line anti-tuberculosis drugs (survival, lung CFU after 4 weeks); type: in vivo, mice; settings: D0 8.36 ± 0.10
[10] = Mycobacterium tuberculosis, literature
[11] = labelled regimen PLUS compound of formula (I) 100 mg/kg/day, INH 25, RIF 10, PZA 150, MXF 100 mg/kg, Day 0 7.37 ± 0.12
[12] = regimen as labelled, INH 25, RIF 10, PZA 150, MXF 100, compound of formula (I) 100 mg/kg, Day 0 7.37 ± 0.12

## CC(=O)NC[C@H]1CN(c2ccc(N3CCOCC3)c(F)c2)C(=O)O1 [LZD, linezolid]
[1]
  MIC: 0.25 µg/mL
[2]; mouse, in vivo
  log kill (reduction in mean lung CFU count compared to the baseline value): 1.46 log10
  mean spleen weight: 200 ± 47 mg and 102 ± 5 mg and 190 ± 52 mg
[2]; mouse, in vivo, 25 mg/kg
  Mean log10 CFU count (± SD) on Day 28: 7.55 ± 0.24 log10 CFU
[2]; mouse, in vivo, 50 mg/kg
  Mean log10 CFU count (± SD) on Day 28: 7.33 ± 0.11 log10 CFU
[2]; mouse, in vivo, 100 mg/kg
  Mean log10 CFU count (± SD) on Day 28: 6.75 ± 0.14 log10 CFU
[2]; mouse, in vivo, 260 mg/kg
  Mean log10 CFU count (± SD) on Day 28: 6.03 ± 0.12 log10 CFU
[3]; 100 mg/kg dose in the mouse, based on linear kinetics
  Cmax higher than that obtained in humans: approximately 3 times
[3]; mouse 130 mg/kg daily vs humans 600-625 mg twice daily
  steady state AUC higher than anticipated steady state AUC in humans: approximately 50%
[3]; mouse, serum, po, 130 mg/kg, serum, Day 1, LZD 130 mg/kg daily oral, read-out: AUC0-24
  AUC(0-t): 164 µg·h/mL
[3]; mouse, serum, po, 130 mg/kg, serum, Day 1, LZD 130 mg/kg daily oral, read-out: Cmax
  Cmax: 64.9 µg/mL
[3]; mouse, serum, po, 130 mg/kg, serum, Day 24, LZD 130 mg/kg daily oral, read-out: AUC0-24 (steady state AUC)
  AUC(0-t): 379 µg·h/mL
[3]; mouse, serum, po, 130 mg/kg, serum, Day 24, LZD 130 mg/kg daily oral, read-out: Cmax
  Cmax: 58.4 µg/mL
[4]
  steady state AUC observed in humans: 215 to 294 µg·h/mL
[5]; [10]
  MIC50: 0.5 µg/mL (≈ 1.48 µM)
  MIC90: 1 µg/mL (≈ 2.96 µM)
  MIC range: 0.125 to 1 µg/mL

## CC(=O)NC[C@H]1CN(c2ccc(N3CCSCC3)c(F)c2)C(=O)O1 [compound of formula (I), (S)—N-[[3-[3-fluoro-4-(4-thiomorpholinyl)phenyl]-2-oxo-5-oxazolidinyl]methyl]acetamide]
[1]
  MIC: 0.25 µg/mL
[2]; 25 mg/kg as active as LZD 130 mg/kg, AUC about 3-fold lower at 100 mg/kg
  in vivo potency relative to LZD: 12 times
[2]; 25 mg/kg, 28 days
  log kill (reduction in mean lung CFU count compared to the baseline value): 0.78 log10
[2]; 25 mg/kg, after 28 days of treatment, pre-treatment 105±11 mg, untreated 237±16 mg
  mean spleen weight: 113 ± 17 mg
[2]; 50 mg/kg, 28 days
  log kill (reduction in mean lung CFU count compared to the baseline value): 2.21 log10
[2]; lung, 25 mg/kg once daily, 5 days per week by gavage, Day 0 7.49 ± 0.11
  Mean log10 CFU count (± SD) on Day 28: 6.71 ± 0.28 log10 CFU
[2]; lung, 25 mg/kg twice daily, Day 0 7.49 ± 0.11
  Mean log10 CFU count (± SD) on Day 28: 5.51 ± 0.14 log10 CFU
[2]; lung, 50 mg/kg once daily, Day 0 7.49 ± 0.11, 50 mg/kg
  Mean log10 CFU count (± SD) on Day 28: 5.28
[2]; lung, 50 mg/kg once daily, Day 0 7.49 ± 0.11, listed as Compound of Formula (I), 50 mg/kg
  Mean log10 CFU count (± SD) on Day 28: 5.28 ± 0.53 log10 CFU
[2]; lung, 50 mg/kg twice daily, Day 0 7.49 ± 0.11
  Mean log10 CFU count (± SD) on Day 28: 4.89 ± 0.27 log10 CFU
[2]; lung, 100 mg/kg once daily, Day 0 7.49 ± 0.11
  Mean log10 CFU count (± SD) on Day 28: 5.07 ± 0.14 log10 CFU
[3]; mouse, in vivo, po, 100 mg/kg
  AUC0-24: 8.74 µg·h/mL
  Cmax: 4.32 µg/mL
[3]; mouse, in vivo, po, 100 mg/kg, AUC0-24
  AUC(0-t): 7.33 µg·h/mL
[3]; mouse, in vivo, po, 100 mg/kg, Cmax
  Cmax: 6.07 µg/mL
[6]; [11]
  Lung log10 CFU counts (±SD) after treatment with the indicated regimen plus the compound of formula (I) 100 mg/kg/day, Day 28: 4.72 ± 0.17 log10 CFU
  Lung log10 CFU counts (±SD) after treatment with the indicated regimen plus the compound of formula (I) 100 mg/kg/day, Day 56: 2.70 ± 0.29 log10 CFU
[6]; monotherapy, compound of formula (I) 100, INH 25, RIF 10 mg/kg
  reduction in lung CFU counts from baseline over the first 28 days: 2.65 log10
[6]; [12]
  Lung log10 CFU counts (±SD) after treatment with the indicated regimen, Day 28: 4.72 log10 CFU
  Lung log10 CFU counts (±SD) after treatment with the indicated regimen, Day 56: 2.70 log10 CFU
[7]; 12.5 mg/kg
  effect of U monotherapy against persisting tubercle bacilli: growth-inhibitory effect
[7]; 25 mg/kg
  effect of U monotherapy against persisting tubercle bacilli: bacteriostatic effect
[7]; 50 mg/kg
  log reduction with U monotherapy against persisting tubercle bacilli: > 0.5 log
[7]; 100 mg/kg
  log reduction with U monotherapy against persisting tubercle bacilli: > 1 log
[7]; 160 mg/kg
  log reduction with U monotherapy against persisting tubercle bacilli: ~2 log
[7]; 8 weeks: 4 weeks RHZU25 then 4 weeks U 12.5 mg/kg
  CFU-U only: 4.99 ± 0.19
[7]; 8 weeks: 4 weeks RHZU25 then 4 weeks U 25 mg/kg
  CFU-U only: 4.26 ± 0.24
[7]; 8 weeks: 4 weeks RHZU25 then 4 weeks U 50 mg/kg
  CFU-U only: 3.56 ± 0.15
[7]; 8 weeks: 4 weeks RHZU25 then 4 weeks U 50 mg/kg thrice weekly (3/7)
  CFU-U only: 4.21 ± 0.26
[7]; 8 weeks: 4 weeks RHZU25 then 4 weeks U 100 mg/kg
  CFU-U only: 2.88 ± 0.34
[7]; 8 weeks: 4 weeks RHZU25 then 4 weeks U 160 mg/kg
  CFU-U only: 2.42 ± 0.31
[8]; 4 weeks RHZU100 then 4 weeks with U 6.25 mg/kg (alone or with R)
  CFU Count 8 weeks: 4.93 ± 0.32
[8]; 4 weeks RHZU100 then 4 weeks with U 12.5 mg/kg (alone or with R)
  CFU Count 8 weeks: 5.30 ± 0.08
[8]; 4 weeks RHZU100 then 4 weeks with U 25 mg/kg (alone or with R)
  CFU Count 8 weeks: 5.27 ± 0.20
[8]; 4 weeks RHZU100 then 4 weeks with U 50 mg/kg (alone or with R)
  CFU Count 8 weeks: 4.59 ± 0.28
[8]; 4 weeks RHZU100 then 4 weeks with U 100 mg/kg (alone or with R)
  CFU Count 8 weeks: 3.86 ± 0.53
[8]; 4 weeks RHZU100 then 4 weeks with U 160 mg/kg (alone or with R)
  CFU Count 8 weeks: 2.90 ± 0.32
[9]; labelled drug PLUS U 25 mg/kg
  Mean lung log10 CFU count (±) S.D. after 4 weeks of treatment with: Regimen + U 25 mg/kg: 7.17 ± 0.23 log10 CFU
[9]; labelled drug PLUS U 100 mg/kg, lower limit of detection 3.40
  Mean lung log10 CFU count (±) S.D. after 4 weeks of treatment with: Regimen + U 100 mg/kg: 5.40 ± 0.10 log10 CFU
[5]; stated in the pharmacokinetics section (Barbachyn et al.)
  MIC90 against M. tuberculosis: 0.25 µg/mL
